Assay results published in patent US20030073731A1, “Compositions and methods of the use thereof achiral analogues of CC-1065 and the duocarmycins” (priority 2000, published 2003).
Like-named read-outs stand apart in the source and are kept apart here.

Experiments:
OVCAR-4 = type: cell-based, human
K-562 [1] = tested on: K-562
HOP-62 [2] = tested on: HOP-62
BT-549 [3] = tested on: BT-549
L1210 leukemia cells = assay: cells; type: cell-based, murine; conditions: Mus musculus; L1210, 72 hr incubation
Description: (§1) The P815 and L1210 cell lines were obtained from American Type Tissue Culture Collection (ATCC). The cell lines were grown in Delbecco's Modified Eagle Medium (DMEM, Atlanta Biologicals) supplemented with 10% fetal bovine serum, Hepes Buffer (2 mM, Mediatech Cellgro, 25-060-Cl), L-Glutamine (2 mM, Mediatech Cellgro), and penicillin/streptomycin (50,000 units penicillin, […] streptomycin, Atlanta Biologicals). Cells were maintained at 37° C. in a 5% humidified CO2 atmosphere. […] This cell suspension (100 μL) was added to 96 well flat-bottom cell culture plates. At this concentration, 80,000 cells were seeded in each well. Drug solutions (dissolved in DMSO and diluted in DMEM) were added to each well (5 μL/well) resulting in final concentrations ranging from […] to 1×10^−12 M. Quadruplicate wells were prepared for each drug concentration. The plates were incubated for 72 hr at 37° C. in a 5% CO2 atmosphere. MTT (3-(4,5-dimethylthiazol-2-yl)-2,5-diphenyl tetrazolium bromide) was dissolved in PBS (5 mg/ml). After the indicated cell incubation period, 10 μL of this stock MTT solution was added to each well and the plates were further incubated for 4 h at 37° C. in a 5% CO2 atmosphere. […] The contents of the well were mixed thoroughly by pipetting the cell suspension up and down and the plates were allowed to sit at room temperature for 15 min in order to allow for full development of the purple color. The plates were read on a Dynatech Plate Reader, utilizing Dynex Revelation 3.2 software, with a test wavelenth of 570 nm and a reference wavelength of […].

P815 mastocytoma cells = assay: cells; type: cell-based, murine; conditions: Mus musculus; P815, 72 hr incubation
Description: as §1

[4] = tested on: panel of 60 human cancer cell lines; conditions: 48 hour exposure
K-562 [5] = assay: cells; conditions: Homo sapiens
EKVX = assay: cells; conditions: Homo sapiens
HOP-62 [6] = assay: cells; conditions: Homo sapiens
HCT-116 = assay: cells; conditions: Homo sapiens
HCT-15 = assay: cells; conditions: Homo sapiens
SW-620 = assay: cells; conditions: Homo sapiens
SF-268 = assay: cells; conditions: Homo sapiens
LOX IMVI = assay: cells; conditions: Homo sapiens
UACC-257 = assay: cells; conditions: Homo sapiens
OVCAR-3 = assay: cells; conditions: Homo sapiens
SK-OV-3 = assay: cells; conditions: Homo sapiens
CAKI-1 = assay: cells; conditions: Homo sapiens
MDA-MB-231/ATCC = assay: cells; conditions: Homo sapiens
HS 578T = assay: cells; conditions: Homo sapiens
MDA-N = assay: cells; conditions: Homo sapiens
BT-549 [7] = assay: cells; conditions: Homo sapiens

Q: What does the source list for “4-(2-Chloroethyl)-3-[5-(5-benzofuran-2-carboxamido)indole-2-carboxamido]phenol [Compound 1]”?
A: GI50 (OVCAR-4): 2390 nM; TGI (OVCAR-4): 5.06E-06 Molar; GI50 (K-562 [1]): 2880 nM; TGI (K-562 [1]): 9.59E-06 Molar; GI50 (RPMI-8226): 1860 nM; TGI (RPMI-8226): 5.59E-06 Molar; GI50 (HOP-62 [2]): 453 nM; TGI (HOP-62 [2]): 3.07E-06 Molar; GI50 (NCI-H522): 933 nM; TGI (NCI-H522): 3.00E-06 Molar; GI50 (U251): 2410 nM; TGI (U251): 1.23E-05 Molar; GI50 (SK-MEL-2): 1320 nM; TGI (SK-MEL-2): 2.67E-06 Molar; GI50 (SK-MEL-5): 1730 nM; TGI (SK-MEL-5): 3.34E-06 Molar; GI50 (SN12C): 3100 nM; TGI (SN12C): 9.41E-06 Molar; GI50 (PC-3): 969 nM; TGI (PC-3): 3.99E-06 Molar; GI50 (BT-549 [3]): 3600 nM; TGI (BT-549 [3]): 2.05E-05 Molar

Q: For COC(=O)c1[nH]c2c(O)cc(NC(=O)c3cc4cc(OC)c(OC)c(OC)c4[nH]3)c(CCCl)c2c1C(=O)OC [Compound 22, Dimethyl 4-(2-chloroethyl)-7-hydroxy-5-(5,6,7-trimethoxyindole-2-carboxamido)indole-2,3-dicarboxylate], which IC50 (L1210 leukemia cells) is on record?
A: Its IC50 is 4200 nM.

Q: What about the IC50 (P815 mastocytoma cells) of the same compound?
A: The IC50 was 5400 nM.

Q: And the “cytotoxic activity in the NCI screen” value [4]?
A: Its value is “activity in the micromolar range”.

Q: And the GI50 (K-562 [5]; K562)?
A: Its GI50 is 315 nM.

Q: What about the CC50 (K-562 [5]; K562, read-out: LC50) of the same compound?
A: The CC50 was over 50000 nM.

Q: What about the GI50 (EKVX) of the same compound?
A: Its GI50 is 164 nM.

Q: What about the CC50 (EKVX; read-out: LC50) of the same compound?
A: The CC50 was 3250 nM.

Q: And the GI50 (HOP-62 [6]; HOP-62)?
A: The GI50 was 91.4 nM.

Q: And the CC50 (HOP-62 [6]; HOP-62, read-out: LC50)?
A: Its CC50 is 8510 nM.

Q: What about the GI50 (HCT-116; HCT-116) of the same compound?
A: Its GI50 is 65.6 nM.

Q: What about the CC50 (HCT-116; HCT-116, read-out: LC50) of the same compound?
A: The CC50 was 33200 nM.

Q: And the GI50 (HCT-15; HCT-15)?
A: Its GI50 is 259 nM.

Q: And the CC50 (HCT-15; HCT-15, read-out: LC50)?
A: The CC50 was over 50000 nM.

Q: What about the GI50 (SW-620; SW-620) of the same compound?
A: The GI50 was 109 nM.

Q: And the CC50 (SW-620; SW-620, read-out: LC50)?
A: Its CC50 is over 50000 nM.

Q: What about the GI50 (SF-268; SF-268) of the same compound?
A: Its GI50 is 13.8 nM.

Q: What about the CC50 (SF-268; SF-268, read-out: LC50) of the same compound?
A: Its CC50 is 1170 nM.

Q: What about the GI50 (LOX IMVI) of the same compound?
A: Its GI50 is 81.7 nM.

Q: And the CC50 (LOX IMVI; read-out: LC50)?
A: Its CC50 is 25600 nM.

Q: What about the GI50 (UACC-257; UACC-257) of the same compound?
A: Its GI50 is 170 nM.

Q: And the CC50 (UACC-257; UACC-257, read-out: LC50)?
A: Its CC50 is over 50000 nM.

Q: What about the GI50 (OVCAR-3; OVCAR-3) of the same compound?
A: Its GI50 is 139 nM.

Q: What about the CC50 (OVCAR-3; OVCAR-3, read-out: LC50) of the same compound?
A: The CC50 was 23000 nM.

Q: And the GI50 (SK-OV-3; SK-OV-3)?
A: The GI50 was 269 nM.

Q: What about the CC50 (SK-OV-3; SK-OV-3, read-out: LC50) of the same compound?
A: Its CC50 is 44600 nM.

Q: What about the GI50 (CAKI-1; CAKI-1) of the same compound?
A: The GI50 was 147 nM.

Q: What about the CC50 (CAKI-1; CAKI-1, read-out: LC50) of the same compound?
A: The CC50 was over 50000 nM.

Q: What about the GI50 (MDA-MB-231/ATCC; MDA-MB-231) of the same compound?
A: Its GI50 is 171 nM.

Q: And the CC50 (MDA-MB-231/ATCC; MDA-MB-231, read-out: LC50)?
A: Its CC50 is over 50000 nM.

Q: What about the GI50 (HS 578T) of the same compound?
A: Its GI50 is 138 nM.

Q: What about the CC50 (HS 578T; read-out: LC50) of the same compound?
A: The CC50 was 946 nM.

Q: What about the GI50 (MDA-N) of the same compound?
A: The GI50 was 150 nM.

Q: And the CC50 (MDA-N; read-out: LC50)?
A: Its CC50 is over 50000 nM.

Q: And the GI50 (BT-549 [7]; BT-549)?
A: Its GI50 is 329 nM.

Q: And the CC50 (BT-549 [7]; BT-549, read-out: LC50)?
A: Its CC50 is over 50000 nM.
